# Test results as given in patent publication US8163804B2 (priority 2005, dated 2012).
# Read-outs that look alike come from different tables or passages of the source.
# Tests used:
# [1] = test system: Green Peach Aphid (Myzus persicae); format: in vivo; details: 3 ppm, foliar spray on eggplant, 5 days after spraying
# [2] = test system: Resistant Cotton Melon Aphid (Aphis gossypii); format: in vivo; details: 3 ppm, foliar spray on cucumber, 5 days after spraying
# [3] = test system: Small Brown Planthopper (Laodelphax striatellus); assay: Insecticidal test on small brown planthopper, sprayed rice seedlings, mortality after 6 days; format: in vivo; details: 3 ppm, sprayed rice seedlings, 6 days after treatment
# Method: Insecticidal Test on Small Brown Planthopper (Laodelphax striatellus)
# A liquid chemical which was diluted and prepared to the prescribed concentration was sprayed on rice seedlings (cultivar: koshihikari), air-dried, and then 10 three-stage insects of Laodelphax striatellus were put into a glass test tube having a diameter of 3 cm and a height of 10 cm along with the seedlings. The test tube was cotton plugged. After 6 days from the treatment, the number of surviving insects was examined and the mortality was calculated (two replications of 10 insects per plot).
# [4] = test system: 2-spotted Spider Mite (Tetranychus urticae); assay: Insecticidal test on 2-spotted spider mite, kidney bean leaf disc with eggs, hatchability of larvae after 6 days; format: in vivo; details: 50 ppm; 6 days after spraying
# Method: Insecticidal Test on 2-spotted Spider Mite (Tetranychus urticae)
# A plastic cup having a diameter of 8 cm was filled with water and covered by a lid with a hole having a diameter of 1 cm. Absorbent cotton was put on the top of the lid and dropped into water from the lid such that the absorbent cotton was always in a wet state due to a capillary phenomenon. A leaf disc having a diameter of 2 cm was prepared with primary leaves of kidney beans (cultivar: Green top) and placed on the aforementioned absorbent cotton. 4 adult female insects of Tetranychus urticae were inoculated thereon. Next day, the adult female insects were removed, and then the number of insect egg was examined. A liquid chemical which was prepared to the prescribed concentration was sprayed by using a vertical sprayer. After spraying, the resulting cup was allowed to stand in an isothermal chamber maintained at 25 degree centigrade. After 6 days from spraying, the number of hatched larvae that survived on the leaf disc was examined and the hatchability of larvae was calculated (two replications of one concentration per chemical).
# [5] = test system: Tiger Moth (Trichoplusia ni); assay: Insecticidal test on tiger moth, cabbage leaf dip, mortality after 6 days; format: in vivo; details: 0.5 ppm; 6 days after treatment
# Method: Insecticidal Test on Tiger Moth (Trichoplusia ni)
# Cut leaves of cabbages (cultivar: shiki-kaku) were immersed in a liquid chemical which was diluted and prepared to the prescribed concentration for 30 seconds, air-dried, and then put into a plastic vessel having a diameter of 9 cm. Each of 10 second-stage insects of Trichoplusia ni was inoculated and the resulting vessel was allowed to stand in an isothermal chamber maintained at 25 degree centigrade. After 6 days from the treatment, the number of surviving insects was examined and the mortality was calculated (two replications of 10 insects per plot).
# [6] = test system: Common Straight Swift Butterfly (Parnara guttata); assay: Control test on common straight swift butterfly of paddy rice, powder spray, number of insects after 20 days (Test Example 8); format: in vivo; details: 20 gai/10a; 20 days after spraying
# [7] = test system: Rice Blast (Pyricularia oryzae); format: in vivo; details: in vivo
# [8] = test system: Common Straight Swift Butterfly (Parnara guttata); assay: Control test on common straight swift butterfly of paddy rice, powder spray, number of insects after 20 days (Test Example 9); format: in vivo; details: 20 gai/10a; 20 days after spraying
# Source text: (§1) Control Test on Common Straight Swift Butterfly (Parnara guttata) and Sheath Blight (Rhizoctonia solani) of Paddy Rice
# (§2) A powder of a prescribed amount was sprayed on rice (cultivar: koshihikari) after 70 days from the transplantation (middle of May) Leaves on which Parnara guttata was parasitic before spraying were eliminated. After 20 days from spraying, the number of insects was examined for 100 stumps in each plot. Furthermore, 7 days before spraying, Rhizoctonia solani cultured on a bran medium was inoculated into the base of the plant. After 30 days from spraying, the number of infected stumps was examined for 100 stumps in each plot and the rate of infected stumps was calculated. In the Table, gai represents the amount of active ingredients (g).
# [9] = test system: Sheath Blight (Rhizoctonia solani); assay: Control test on sheath blight of paddy rice, powder spray, rate of infected stumps after 30 days; format: in vivo; details: 20 gai/10a; 30 days after spraying
# Source text: as §1, §2
# [10] = test system: Oriental Fruit Moth (Grapholita molesta); assay: Control test on oriental fruit moth of pear, spray, rate of infected fruit after 40 days; format: in vivo; details: 50 ppm; 40 days after spraying
# Method: (§3) Control Test on Oriental Fruit Moth (Grapholita molesta) and Scab (Venturia nashicola) of Pear
# (§4) A liquid chemical which was prepared to the prescribed concentration was sufficiently sprayed on 17-year-old pears (cultivar: Hosui) (early June). After 40 days from spraying, the number of infected fruits due to Grapholita molesta was examined for all fruit in the plot, and the rate of infected fruit was calculated. Furthermore, after 14 days from spraying, infection of Venturia nashicola was examined by the degrees for optional 200 leaves in the plot and the severity index was calculated according to the following equation. Severity index=Z(number of infected leaves by the degrees×index)×100/(number of examined leaves×5)
# [11] = test system: Scab (Venturia nashicola); assay: Control test on scab of pear, spray, severity index after 14 days; format: in vivo; details: 50 ppm; 14 days after spraying
# Method: as §3, §4
# [12] = test system: Cucumber Moth (Diaphania indica); assay: Insecticidal test on cucumber moth, sprayed cucumber leaves, mortality; format: in vivo; details: 10 ppm
# Method: (§5) Insecticidal Test on Cucumber Moth (Diaphania indica) and Control Test on Powdery Mildew (Sphaerotheca fuliginea) of Cucumbers
# (§6) A liquid chemical which was prepared to the prescribed concentration was sufficiently sprayed on cucumbers (cultivar: sagami-hanpaku) cultured in a greenhouse. After 7 days from spraying, leaves were cut off and put into a plastic cup (diameter: 10 cm, height: 10 cm) along with 5 of second-stage larvae of Diaphania indica, and the mortality was examined 4 days thereafter. Furthermore, 1 day after spraying, the leaves of cucumbers which were previously arranged to be infected by pathogen were uniformly wiped with Sphaerotheca fuliginea thereon using a paintbrush for inoculation and examined after 10 days thereafter. The area occupied by lesion per leaf of cucumber was examined in accordance with the following index, and the control value was calculated from the average severity index of each plot according to the following equation (two replications).
# [13] = test system: Powdery Mildew (Sphaerotheca fuliginea); assay: Control test on powdery mildew of cucumbers, spray, control value from severity index; format: in vivo; details: 10 ppm
# Method: as §5, §6
# Severity Index • 0: No lesion • 1: Lesion area was not more than 5% • 2: Lesion area was from 6 to 25% • 3: Lesion area was from 26 to 50% • 4: Lesion area was not less than 51% Control Value=(1−average severity in the treated plot/average severity in the untreated plot)×100
# [14] = test system: Turnip Moth (Agrotis segetum); assay: Control test on turnip moth of cabbage, soil treatment, rate of infected stumps after 7 days; format: in vivo; details: 7 days after treatment
# Method: (§7) Control Test on Turnip Moth (Agrotis segetum) and Clubroot (Plasmodiophora brassicae) of Cabbage due to Soil Treatment
# (§8) A powder in a prescribed amount was mixed to soil and cabbages (cultivar: shiki-kaku) cultured on a cell medium were planted out. After 7 days from the treatment, the number of infected stumps due to Agrotis segetum was examined and the rate of infected stumps was calculated. Furthermore, after 60 days from the treatment, stumps were picked out, and lesion formation of Plasmodiophora brassicase was examined according to the degrees of severity. The control value was calculated from the average severity index of each plot according to the following equation. In the Table, gai represents the amount of active ingredients (g).
# [15] = test system: Clubroot (Plasmodiophora brassicae); assay: Control test on clubroot of cabbage, soil treatment, control value after 60 days; format: in vivo; details: 60 days after treatment
# Method: as §7, §8
# Severity Index • 0: No clubroot attached • 1: Clubroot was attached at a portion of from 1 to 25% of the whole root • 2: Clubroot was attached at a portion of from 25 to 50% of the whole root • 3: Clubroot was attached at a portion of from 50 to 75% of the whole root • 4: Clubroot was attached at a portion of from 75% or more of the whole root Control Value=(1−average severity in the treated plot/average severity in the untreated plot)×100
# [16] = test system: Small Brown Planthopper (Laodelphax striatellus); assay: Control test on small brown planthopper, nursery box application of paddy rice, number of parasitic insects after 40 and 60 days; format: in vivo; details: 5 gai/box
# Method: (§9) Control Test on Small Brown Planthopper (Laodelphax striatellus) and Rice Leafroller (Cnaphalocrocis medinalis) on Nursery Box Application of Paddy Rice
# (§10) Rice (cultivar: Nihonbare) cultured in a nursery box was treated with 50 g of a granule formulation per box, and then transplanted to the rice field. For the control effect against Laodelphax striatellus, the number of parasitic insects was examined for 30 stumps per plot after 40 days and 60 days from the transplantation. In addition, for the control effect against Cnaphalocrocis medinalis, the number of infected leaves was examined for 100 stumps per plot after 50 days from the transplantation, and the infected leaf rate was calculated. In the Table, gai represents the amount of active ingredients (g).
# [17] = test system: Rice Leafroller (Cnaphalocrocis medinalis); assay: Control test on rice leafroller, nursery box application of paddy rice, infected leaf rate after 50 days; format: in vivo; details: 5 gai/box; 50 days after transplantation
# Method: as §9, §10
# [18] = test system: Rice Blast (Pyricularia oryzae); format: in vivo; details: in vivo; remark: listed apart in the source
# [19] = test system: Rice Striped Stem Borer (Chilo suppressalis); details: 5 gai/box
compound,measurement,setting,value
Cc1cc(C(F)(C(F)(F)F)C(F)(F)F)cc(C)c1NC(=O)c1cccc(N(C)C(=O)c2ccccc2)c1F [Compound 1208],Control rate (%),[1],20%
same,Control rate (%),[2],18%
same,Mortality (%),[3],10%
same,Hatchability of larvae (%),[4],78%
same,Mortality (%),[5],75%
same,Number (insects/100 stumps),[6],1 insects/100 stumps
same,Pyricularia oryzae Control value,[7],5
same,Number of insects (number/100 stumps),[8],1 number/100 stumps
same,Rate of infected stumps (%),[9],99%
same,Grapholita molesta Infected fruit rate (%),[10],1.9%
same,Venturia nashicola Severity index,[11],52.4
same,Diaphania indica Mortality (%),[12],95%
same,Sphaerotheca fuliginea Control value,[13],0
same,Agrotis segetum Infected stump rate (%),[14]; 100 gai/10a,2.8%
same,Plasmodiophora brassicae Control value,[15]; 100 gai/10a,9
"Cc1cc(C(F)(C(F)(F)F)C(F)(F)F)cc(C)c1NC(=O)c1cccc(NC(=O)c2ccccc2)c1F [Compound No. 601, N-(2,6-dimethyl-4-heptafluoroisopropyl)phenyl 3-(benzoylamino)-2-fluorobenzamide]",Number (insects/100 stumps),[6],1 insects/100 stumps
same,Pyricularia oryzae Control value,[7],7
same,Number of insects (number/100 stumps),[8],2 number/100 stumps
same,Rate of infected stumps (%),[9],96%
same,Grapholita molesta Infected fruit rate (%),[10],2.3%
same,Venturia nashicola Severity index,[11],53.0
same,Diaphania indica Mortality (%),[12],95%
same,Sphaerotheca fuliginea Control value,[13],0
same,Agrotis segetum Infected stump rate (%),[14]; 100 gai/10a,2.8%
same,Plasmodiophora brassicae Control value,[15]; 100 gai/10a,0
CCCc1cc(C(F)(C(F)(F)F)C(F)(F)F)cc(Br)c1NC(=O)c1cccc(NC(=O)c2ccccc2)c1 [Compound 178],Grapholita molesta Infected fruit rate (%),[10],3.4%
same,Venturia nashicola Severity index,[11],51.5
same,Diaphania indica Mortality (%),[12],90%
same,Sphaerotheca fuliginea Control value,[13],0
same,Agrotis segetum Infected stump rate (%),[14]; 100 gai/10a,5.6%
same,Plasmodiophora brassicae Control value,[15]; 100 gai/10a,5
O=C(Nc1cccc(C(=O)Nc2c(Br)cc(C(F)(C(F)(F)F)C(F)(F)F)cc2SC(F)(F)F)c1)c1ccccc1 [Compound 210],Control rate (%),[1],7%
same,Control rate (%),[2],12%
same,Mortality (%),[3],15%
same,Hatchability of larvae (%),[4],80%
same,Mortality (%),[5],70%
same,Number (insects/100 stumps),[6],1 insects/100 stumps
same,Pyricularia oryzae Control value,[7],3
same,Number of insects (number/100 stumps),[8],1 number/100 stumps
same,Rate of infected stumps (%),[9],98%
same,Grapholita molesta Infected fruit rate (%),[10],1.7%
same,Venturia nashicola Severity index,[11],50.6
same,Diaphania indica Mortality (%),[12],95%
same,Sphaerotheca fuliginea Control value,[13],0
same,Agrotis segetum Infected stump rate (%),[14]; 100 gai/10a,2.8%
same,Plasmodiophora brassicae Control value,[15]; 100 gai/10a,0
Cc1cc(C(F)(C(F)(F)F)C(F)(F)F)cc(C)c1NC(=O)c1cccc(N(C)C(=O)c2cccnc2Cl)c1F [Compound 1245],Control rate (%),[1],12%
same,Control rate (%),[2],15%
same,Mortality (%),[3],5%
same,Hatchability of larvae (%),[4],85%
same,Laodelphax striatellus Number of parasitic insects/30 stumps,[16]; 40 days,82 insects/30 stumps
same,Laodelphax striatellus Number of parasitic insects/30 stumps,[16]; 60 days,140 insects/30 stumps
same,Cnaphalocrocis medinalis Infected leaf rate (%),[17],0.32%
same,Mortality (%),[5],70%
same,Pyricularia oryzae Control value,[18],0
same,Number (insects/100 stumps),[6],2 insects/100 stumps
same,Pyricularia oryzae Control value,[7],0
same,Number of insects (number/100 stumps),[8],2 number/100 stumps
same,Rate of infected stumps (%),[9],98%
same,Grapholita molesta Infected fruit rate (%),[10],2.8%
same,Venturia nashicola Severity index,[11],51.6
same,Diaphania indica Mortality (%),[12],90%
same,Sphaerotheca fuliginea Control value,[13],0
same,Agrotis segetum Infected stump rate (%),[14]; 100 gai/10a,2.8%
same,Plasmodiophora brassicae Control value,[15]; 100 gai/10a,6
same,Chilo suppressalis Mortality (%),[19],95%
O=[N+]([O-])c1ccc(NS(=O)(=O)c2ccc(Cl)c(C(F)(F)F)c2)c(Cl)c1 [flusulfamide],Agrotis segetum Infected stump rate (%),[14]; 60 gai/10a,36.1%
same,Plasmodiophora brassicae Control value,[15]; 60 gai/10a,91
